Organism: Rattus norvegicus
Assay: Open TG-GATES - Regimen: Single
Assay type: toxicity, organism-based, Sprague-Dawley
Set-up: regimen Single, gender Male, age 6 weeks
Settings: in vivo, po, route gavage; for APTT / Bas / Eos / Fbg / Hb / Ht / Lym / MCH / MCHC / MCV / Mono / Neu / PT / Plat / Ret / WBC: tissue Blood; for KIDNEY_L / KIDNEY_R / KIDNEY_TOTAL: tissue Kidney; for LIVER: tissue Liver; for ALP / ALT / AST / BUN / CRE / DBIL / GLC / IP / K / LDH / Na / PL / RALB / TBIL / TC / TG / TP / gamma-GTP / Ca: tissue Plasma
[1] = 0 mg/kg, 3 h, dose level Control
[2] = 0 mg/kg, 6 h, dose level Control
[3] = 0 mg/kg, 9 h, dose level Control
[4] = 0 mg/kg, 24 h, dose level Control

## CN(C)CCCN1c2ccccc2CCc2ccc(Cl)cc21 [CLOMIPRAMINE]
[1]
  TERMINAL_BW: 213.4 g
  APTT: 23.8 s
  Bas: 0.4%
  Eos: 0.8%
  Fbg: 259.6 mg/dL
  Hb: 13.8 g/dL
  Ht: 42.8%
  Lym: 77.4%
  MCH: 21.4 pg
  MCHC: 32.3%
  MCV: 66.4 fL
  Mono: 3.6%
  Neu: 16.8%
  PT: 13.6 s
  Plat: 115.6 x10_4/uL
  Ret: 8.2%
  WBC: 86.3 x10_2/uL
  KIDNEY_L: 1 g
  KIDNEY_R: 1 g
  KIDNEY_TOTAL: 1.9 g
  LIVER: 9.4 g
  ALP: 1695.8 IU/L
  ALT: 43.8 IU/L
  AST: 82.8 IU/L
  BUN: 9.6 mg/dL
  CRE: 0.2 mg/dL
  DBIL: 0.006 mg/dL
  GLC: 182.4 mg/dL
  IP: 9.7 mg/dL
  K: 4.2 meq/L
  LDH: 98.4 IU/L
  Na: 140.2 meq/L
  PL: 140 mg/dL
  RALB: 2.5 g/dL
  TBIL: 0.074 mg/dL
  TC: 75.4 mg/dL
  TG: 54.2 mg/dL
  TP: 5.2 g/dL
  gamma-GTP: 1 IU/L
[2]
  TERMINAL_BW: 213.9 g
  APTT: 16.6 s
  Bas: 0%
  Eos: 0.8%
  Fbg: 254.2 mg/dL
  Hb: 13.7 g/dL
  Ht: 42.3%
  Lym: 76.2%
  MCH: 21 pg
  MCHC: 32.3%
  MCV: 65.1 fL
  Mono: 2.8%
  Neu: 19.2%
  PT: 13.9 s
  Plat: 125.3 x10_4/uL
  Ret: 8.3%
  WBC: 83.4 x10_2/uL
  KIDNEY_L: 1 g
  KIDNEY_R: 1 g
  KIDNEY_TOTAL: 2 g
  LIVER: 9.4 g
  ALP: 1630.4 IU/L
  ALT: 38.6 IU/L
  AST: 76.6 IU/L
  BUN: 9.2 mg/dL
  CRE: 0.2 mg/dL
  Ca: 10.8 mg/dL
  DBIL: 0.006 mg/dL
  GLC: 178.2 mg/dL
  IP: 9.8 mg/dL
  K: 4.2 meq/L
  LDH: 90 IU/L
  Na: 140.4 meq/L
  PL: 142.6 mg/dL
  RALB: 2.6 g/dL
  TBIL: 0.07 mg/dL
  TC: 71.8 mg/dL
  TG: 77.8 mg/dL
  TP: 5.4 g/dL
  gamma-GTP: 1 IU/L
[3]
  TERMINAL_BW: 213.6 g
  APTT: 16.7 s
  Bas: 0.2%
  Eos: 1%
  Fbg: 245 mg/dL
  Hb: 13.4 g/dL
  Ht: 41%
  Lym: 78.2%
  MCH: 21 pg
  MCHC: 32.6%
  MCV: 64.4 fL
  Mono: 1.6%
  Neu: 18%
  PT: 14 s
  Plat: 133.7 x10_4/uL
  Ret: 8.1%
  WBC: 86.1 x10_2/uL
  KIDNEY_L: 1 g
  KIDNEY_R: 1 g
  KIDNEY_TOTAL: 2 g
  LIVER: 8.5 g
  ALP: 1606 IU/L
  ALT: 39.8 IU/L
  AST: 79.8 IU/L
  BUN: 9.8 mg/dL
  CRE: 0.2 mg/dL
  DBIL: 0.008 mg/dL
  GLC: 181 mg/dL
  IP: 10.1 mg/dL
  K: 4 meq/L
  LDH: 109.8 IU/L
  Na: 140.6 meq/L
  PL: 139.2 mg/dL
  RALB: 2.4 g/dL
  TBIL: 0.07 mg/dL
  TC: 75.4 mg/dL
  TG: 51.2 mg/dL
  TP: 5.1 g/dL
  gamma-GTP: 1 IU/L
[4]
  TERMINAL_BW: 229.8 g
  APTT: 18 s
  Bas: 0%
  Eos: 0.8%
  Fbg: 257.8 mg/dL
  Hb: 13.5 g/dL
  Ht: 41.6%
  Lym: 82.6%
  MCH: 20.5 pg
  MCHC: 32.4%
  MCV: 63.4 fL
  Mono: 2.8%
  Neu: 12.6%
  PT: 13.4 s
  Plat: 129 x10_4/uL
  Ret: 7.4%
  WBC: 82.9 x10_2/uL
  KIDNEY_L: 1 g
  KIDNEY_R: 1 g
  KIDNEY_TOTAL: 2.1 g
  LIVER: 11 g
  ALP: 1743.2 IU/L
  ALT: 45.8 IU/L
  AST: 73.4 IU/L
  BUN: 14 mg/dL
  CRE: 0.2 mg/dL
  Ca: 10.9 mg/dL
  DBIL: 0.01 mg/dL
  GLC: 176.4 mg/dL
  IP: 8.2 mg/dL
  K: 4.1 meq/L
  LDH: 80.2 IU/L
  Na: 140.8 meq/L
  PL: 161.6 mg/dL
  RALB: 2.6 g/dL
  TBIL: 0.062 mg/dL
  TC: 83.2 mg/dL
  TP: 5.5 g/dL
  gamma-GTP: 1 IU/L
10 mg/kg, 3 h, dose level Low
  TERMINAL_BW: 216.3 g

— ChEMBL document CHEMBL3885861, “Open TG-GATES”
